Structures can show the parent of a compound that is named as a salt.

The test system of the first assay is Acinetobacter baumannii ATCC17961. Nature of the assay: Antimicrobial susceptibility testing: 90% growth inhibitory concentration (IC90) determination in Iso-Sensitest broth, OD600 growth. It is filed as cell-based. Particulars: Acinetobacter baumannii, ATCC17961, 16 h, read-out: A. baumannii ATCC 17961 IC90 (uM), strain ATCC 17961, OD600 growth over 16 h. The essentials:
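Compounds were twofold serially diluted in DMSO across 10 points (e.g. 50 to 0.097 μM final) and inoculated at ~5×10^(5) CFU/ml. Plates incubated at 35±2° C, with OD600 read every 20 minutes over 16 h. IC90 was derived from growth inhibition during logarithmic growth.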
The IC90 is the concentration at which the effect reaches the 90% level. As for `CNC(=O)c1ccc(Nc2nccn3c(-c4cn(Cc5cccc(CCN)c5)nc4C(F)(F)F)cnc23)cc1Cl` [Example 595, 4-((3-(1-(3-(2-aminoethyl)benzyl)-3-(trifluoromethyl)-1H-pyrazol-4-yl)imidazo[1,2-a]pyrazin-8-yl)amino)-2-chloro-N-methylbenzamide formate], the IC90 was determined as 0.186 µM. Take `CCc1cc(Nc2nccn3c(-c4cn(CC#N)nc4C(F)(F)F)cnc23)ccc1C(=O)N1CCNCC1` [Example 260, 2-[4-[8-[3-ethyl-4-(piperazine-1-carbonyl)anilino]imidazo[1,2-a]pyrazin-3-yl]-3-(trifluoromethyl)pyrazol-1-yl]acetonitrile formate]: the IC90 amounted to 0.519 µM.

Take `CCc1cc(Nc2nccn3c(-c4cn(CCF)nc4C(F)(F)F)cnc23)ccc1C(=O)NCCOCCCN` [Example 610, N-(2-(3-aminopropoxy)ethyl)-2-ethyl-4-((3-(1-(2-fluoroethyl)-3-(trifluoromethyl)-1H-pyrazol-4-yl)imidazo [1,2-a]pyrazin-8-yl)amino)benzamide formate]: the IC90 was 0.099 µM. As for `CCc1cc(Nc2nccn3c(-c4cn(CC#N)nc4C(F)(F)F)cnc23)ccc1C(=O)NCC(=O)N1CC[C@H](N)C1` [Example 681, N-[2-[(3S)-3-aminopyrrolidin-1-yl]-2-oxo-ethyl]-4-[[3-[1-(cyanomethyl)-3-(trifluoromethyl)pyrazol-4-yl]imidazo[1,2-a]pyrazin-8-yl]amino]-2-ethyl-benzamide formate], the 90% effect concentration (IC90) stood at 0.327 µM. The same measure, in the same setting: the figure for `CCc1cc(Nc2nccn3c(-c4cn(CC#N)nc4C(F)(F)F)cnc23)ccc1C(=O)NCCCNC(=O)[C@H](C)N` [Example 794, (S)-N-(3-(2-aminopropanamido)propyl)-4-((3-(1-(cyanomethyl)-3-(trifluoromethyl)-1H-pyrazol-4-yl)imidazo[1,2-a]pyrazin-8-yl)amino)-2-ethylbenzamide formate] is 2.2 µM; for `C[C@@H](NC(=O)c1ccc(Nc2nccn3c(-c4c[nH]nc4C(F)(F)F)cnc23)cc1Cl)C(=O)N1CC[C@@H](N)C1` [Example 97, N-[(2R)-1-[(3R)-3-aminopyrrolidin-1-yl]-1-oxopropan-2-yl]-2-chloro-4-[[3-[3-(trifluoromethyl)-1H-pyrazol-4-yl]imidazo[1,2-a]pyrazin-8-yl]amino]benzamide formate] it is 1.7 µM.

The same assay, now with this note: Acinetobacter baumannii, ATCC17961, 16 h, strain ATCC 17961, OD600 growth over 16 h, read-out: A. baumannii ATCC 17961 IC90.
Regarding `CCc1cc(Nc2nccn3c(-c4cn(CC(F)F)nc4C(F)(F)F)cnc23)ccc1C(=O)NCC(=O)N1CC[C@@H](N)C1` [Example 687, N-[2-[(3R)-3-aminopyrrolidin-1-yl]-2-oxo-ethyl]-4-[[3-[1-(2,2-difluoroethyl)-3-(trifluoromethyl)pyrazol-4-yl]imidazo[1,2-a]pyrazin-8-yl]amino]-2-ethyl-benzamideformate], the IC90 is 0.345 µM. The same measure, in the same setting: in the case of `O=C(c1ccc(Nc2nccn3c(-c4c[nH]nc4C(F)(F)F)cnc23)cc1Cl)N1CCN(C(=O)C2(O)CCCNC2)CC1` (stereo not drawn) [Example 352, [2-chloro-4-[[3-[3-(trifluoromethyl)-1H-pyrazol-4-yl]imidazo[1,2-a]pyrazin-8-yl]amino]phenyl]-[4-(3-hydroxypiperidine-3-carbonyl)piperazin-1-yl]methanone] it was 0.229 µM; in that of `O=C(c1ccc(Nc2nccn3c(-c4c[nH]nc4C(F)(F)F)cnc23)cc1Cl)N1CCN(C(=O)[C@H]2[C@@H]3CNC[C@@H]32)CC1` [Example 516, (4-((1R,5S,6r)-3-azabicyclo[3.1.0]hexane-6-earbonyl)piperazin-1-yl) (2-chloro-4-((3-(3-(trifluoromethyl)-1H-pyrazol-4-yl)imidazo[1,2-a]pyrazin-8-yl)amino)phenyl)methanone formate], 0.14 µM. On the same count and under the same terms, the figure for `C#CCn1cc(-c2cnc3c(Nc4ccc(C(=O)NCCOC[C@H](C)N)c(CC)c4)nccn23)c(C(F)(F)F)n1` [Example 147, N-[2-[(2S)-2-aminopropoxy]ethyl]-2-ethyl-4-[[3-[1-prop-2-ynyl-3-(trifluoromethyl)pyrazol-4-yl]imidazo[1,2-a]pyrazin-8-yl]amino]benzamide] is 0.049 µM. For `Cc1cc(Nc2nccn3c(-c4c[nH]nc4C(F)(F)F)cnc23)cc(F)c1C(=O)NCCCCCN` [Example 81, N-(5-aminopentyl)-2-fluoro-6-methyl-4-[[3-[3-(trifluoromethyl)-1H-pyrazol-4-yl]imidazo[1,2-a]pyrazin-8-yl]amino]benzamide], the IC90 is 1.06 µM. For `CCc1cc(Nc2nccn3c(-c4cn(CCF)nc4C(F)F)cnc23)ccc1C(=O)N1CCN(C(=O)[C@@H](C)N)CC1` [Example 796, (R)-2-amino-1-(4-(4-((3-(3-(difluoromethyl)-1-(2-fluoroethyl)-1H-pyrazol-4-yl)imidazo[1,2-a]pyrazin-8-yl)amino)-2-ethylbenzoyl)piperazin-1-yl)propan-1-one], the IC90 was determined as 2.25 µM.

For the compound `NCCCNC(=O)CNCCNC(=O)c1ccc(Nc2nccn3c(-c4cn(CC(F)F)nc4C(F)(F)F)cnc23)cc1Cl` [Example 824, N-(2-((2-((3-aminopropyl)amino)-2-oxoethyl)amino)ethyl)-2-chloro-4-(3-(1-2,2-difluoroethyl)-3-(trifluoromethyl)-1H-pyrazol-4-yl)imidazo[1,2-a]pyrazin-8-yl)amino) benzamide formate], the IC90 is 0.12 µM. On to `CCc1cc(Nc2nccn3c(-c4cn(CC(F)F)nc4C(F)F)cnc23)ccc1C(=O)N1CCN(C(=O)[C@H](N)C(C)C)CC1` [Example 768, (R)-2-amino-1-(4-(4-((3-(1-(2,2-difluoroethyl)-3-(difluoromethyl)-1H-pyrazol-4-yl)imidazo[1,2-a]pyrazin-8-yl)amino)-2-ethylbenzoyl)piperazin-1-yl)-3-methylbutan-1-one], for which the IC90 was determined as 0.916 µM. Same read-out and setting: in the case of `C#CC(C)n1cc(-c2cnc3c(Nc4ccc(C(=O)N5CCN(C(=O)[C@H](N)C(C)C)CC5)c(CC)c4)nccn23)c(C(F)F)n1` (mixture of isomers) [Example 799, (2R)-2-amino-1-(4-(4-((3-(1-(but-3-yn-2-yl)-3-(difluoromethyl)-1H-pyrazol-4-yl)imidazo [1,2-a]pyrazin-8-yl)amino)-2-ethylbenzoyl)piperazin-1-yl)-3-methylbutan-1-one (mixture of epimers)] it was 2.74 µM.

Turning to `Cc1cc(Nc2nccn3c(-c4cn(CC(F)F)nc4C(F)(F)F)cnc23)cc(F)c1C(=O)NCCOCCN` [Example 49, N-[2-(2-aminoethoxy)ethyl]-4-[[3-[1-(2,2-difluoroethyl)-3-(trifluoromethyl)pyrazol-4-yl]imidazo[1,2-a]pyrazin-8-yl]amino]-2-fluoro-6-methylbenzamide], the IC90 turned out to be 0.12 µM.

In the case of `N#CCn1cc(-c2cnc3c(Nc4ccc(C(=O)N5CCN(CC(=O)N[C@H]6CCNC6)CC5)c(Cl)c4)nccn23)c(C(F)(F)F)n1` [Example 605, (S)-2-(4-(2-chloro-4-((3-(1-(cyanomethyl)-3-(trifluoromethyl)-1H-pyrazol-4-yl)imidazo[1,2-a]pyrazin-8-yl)amino)benzoyl)piperazin-1-yl)-N-(pyrrolidin-3-yl) acetamide formate], the IC90 turned out to be 0.496 µM.

For the compound `CNC(=O)c1ccc(Nc2nccn3c(-c4cn(CCCC#N)nc4C(F)(F)F)cnc23)cc1Cl` [Example 359, 2-chloro-4-[[3-[1-(3-cyanopropyl)-3-(trifluoromethyl)pyrazol-4-yl]imidazo[1,2-a]pyrazin-8-yl]amino]-N-methylbenzamide], the IC90 stood at 0.303 µM. As to `CCc1cc(Nc2nccn3c(-c4cn(CC#N)nc4C(F)(F)F)cnc23)ccc1C(=O)NCC1CCN(CC2CNC2)CC1` [Example 828, N-((1-(azetidin-3-ylmethyl)piperidin-4-yl)methyl)-4-((3-(1-(cyanomethyl)-3-(trifluoromethyl)-1H-pyrazol-4-yl)imidazo[1,2-α]pyrazin-8-yl)amino)-2-ethylbenzamide 2,2,2-trifluoroacetate], the IC90 is 0.35 µM. Same read-out and setting: in the case of `CCc1cc(Nc2nccn3c(-c4cn(CC(F)F)nc4C(F)(F)F)cnc23)ccc1C(=O)N1CCN(C(=O)C2CCNCC2)CC1` [Example 70, [4-[[3-[1-(2,2-difluoroethyl)-3-(trifluoromethyl)pyrazol-4-yl]imidazo[1,2-a]pyrazin-8-yl]amino]-2-ethylphenyl]-[4-(piperidine-4-carbonyl)piperazin-1-yl]methanone] it was 0.489 µM. Same read-out and setting: in the case of `O=C(N[C@H]1CCNC1)c1ccc(Nc2nccn3c(-c4c[nH]nc4C(F)(F)F)cnc23)cc1Cl` [Example 378, 2-chloro-N-[(3S)-pyrrolidin-3-yl]-4-[[3-[3-(trifluoromethyl)-1H-pyrazol-4-yl]imidazo[1,2-a]pyrazin-8-yl]amino]benzamide] it was 0.562 µM.

Staying with this assay, now noted: strain ATCC 17961, OD600 growth over 16 h, read-out: A. baumannii ATCC 17961 IC90.
`C#CCNCCCNC(=O)c1c(C)cc(Nc2nccn3c(-c4cn(CC=C)nc4C(F)(F)F)cnc23)cc1F` [Example 66, 2-fluoro-6-methyl-4-[[3-[1-prop-2-enyl-3-(trifluoromethyl)pyrazol-4-yl]imidazo[1,2-a]pyrazin-8-yl]amino]-N-[3-(prop-2-ynylamino)propyl] benzamide]: the IC90 turned out to be 0.379 µM. Same read-out and setting: in the case of `NC1CC(NC(=O)c2ccc(Nc3nccn4c(-c5c[nH]nc5C(F)(F)F)cnc34)cc2Cl)C1` (stereo not drawn) [Example 403, N-(3-aminocyclobutyl)-2-chloro-4-[[3-[3-(trifluoromethyl)-1H-pyrazol-4-yl]imidazo[1,2-a]pyrazin-8-yl]amino]benzamide] it was 0.398 µM; in that of `C[C@@H](O)CNC(=O)c1ccc(Nc2nccn3c(-c4cn(CC#N)nc4C(F)(F)F)cnc23)cc1Cl` [Example 237, 2-chloro-4-[[3-[1-(cyanomethyl)-3-(trifluoromethyl)pyrazol-4-yl]imidazo[1,2-a]pyrazin-8-yl]amino]-N-[(2R)-2-hydroxypropyl] benzamide], 0.196 µM.

These data come from US20230203043A1, “NOVEL IMIDAZOPYRAZINE DERIVATIVES” (Hoffmann-La Roche Inc., priority 2020, published 2023).
